# Laboratory results as given in patent US11590117B2, “Treatment of a hematologic malignancy with 2-(4-chlorophenyl)-n-((2-(2,6-dioxopiperidin-3-yl)-1-oxoisoindolin-5-yl)methyl)-2,2-difluoroacetamide” (priority 2016, dated 2023).
# Where “and” joins values, the source holds several entries; their conditions need not be identical. Equal entries are not always repeated. Where two headings read alike, the source gives them in different places.
# Tests used:
# Format in all cases: cell-based, human
# [1] = system: normal lymphocytes of AML bone marrow samples; assay: Ex vivo flow cytometry (ExviTech) assay in AML donor bone marrow samples
# Experimental: (§1) Patient Samples: The study included bone marrow (BM) samples from adult patients over 18 years of age who were diagnosed with AML. Samples were analyzed in two different batches with the first batch containing 10 patients (donors assigned identification codes containing CG1) and the second comprising the remaining 20 donors (assigned identification codes containing CG3). Corresponding clinical data was not available for the second batch of 20 patient samples at the time of writing.
# (§2) Experimental Study Design: To evaluate and characterize the ex vivo pharmacology of Compound 1 in malignant cells and normal lymphocytes of bone marrow samples from thirty donors with acute myeloid leukemia using a flow cytometry-based platform (ExviTech) (Bennett, et al Clin Lymphoma Myeloma Leuk 2014 August; 14(4):305-318).
# (§3) On Day 1, the donor sample was received. A small part was separated for validation, and the majority was diluted with culture medium (Roswell Park Memorial Institute (RPMI) 1640) and plated into 96-well plates previously prepared with a range of Compound 1 concentrations. The number of live leukemic cells seeded in each well was fixed between 8000 and 32,000, depending on the percentage of leukemic cells for each sample. The plates were incubated for 24, 48, or 96 hours. Antibodies anti-D34, anti-CD117, anti-HLA-DR, anti-CD45, anti-CD14, anti-CD64, anti-CD13, anti-CD11b) or Annexin V were added to identify leukemic cells using a gating strategy based on forward scatter (FSC) or side scatter (SSC) and expression or lack of expression of different surface markers. The monoclonal antibody selection was performed to optimize the identification of leukemic cells in each sample. The aim of this analysis was not the phenotypic characterization but only the identification of these cells. Accordingly, the markers that Euroflow (van Dongen et al, Leukemia 2012 September; 26(9):1908-1975) has designated as the “backbone markers” for AML (CD34, CD45, CD117) and human leukocyte antigen-DR (HLA-DR) were included in the combination. They allowed the identification of the leukemic cells in almost 90% of AML patients. Additional panels, CD34/CD14/CD64/CD45 and CD34/CD11b/CD13/CD45, were also used to complete the identification of the myeloid leukemic population. This allowed for the selection of the two best antibodies for unequivocal identification of the pathological cell population in each particular sample.
# (§4) Live leukemic cells were identified by their light scattering properties classified as high, intermediate, or low (eg, FSC^int/hi/SSC^int) in the absence of Annexin V fluorescein isothiocyanate (FITC) staining. Forward scatter/side scatter selection was performed to exclude debris. The average percentage of cell viability on receipt of the sample was greater than 50% (samples were only processed if the viability was greater than 50%). In some AML donor samples, sufficient normal, non-tumoral lymphocyte cells could be counted, and the effect of Compound 1 was measured in this cell population. Non-tumoral lymphocytes were identified by bright expression of CD45, FSC^low/SSC^low and absence of myeloid markers (CD117, CD11b, and CD13).
# (§5) Detailed descriptions of methods used have been published previously (Bennett, et al Clin Lymphoma Myeloma Leuk 2014 August; 14(4):305-318). Briefly, BM samples were extracted under sterile conditions in hospitals of origin and were received within 24 hours of extraction. Initial analysis evaluated the number of pathological cells and their viability. Different volumes of sample (1 μL, 3 μL, 5 μL, and 7 μL) were transferred in duplicate into a 96-well plate. To lyse red blood cells, 180 μL of ammonium chloride lysis solution (2 g KHCO3, 16.58 g NH4Cl, 0.074 g disodium ethylenediaminetetraacetic acid ⋅2H2O, and H2O adjusted to […]) was added to each well. Following a 10-minute incubation period at 4° C., each plate was centrifuged for 5 minutes at 1200 rpm, and the supernatant removed. […]
# [2] = system: leukemic cells of AML bone marrow samples; assay: as above; conditions: for Emax: 100% minus YMin; for depletion of leukemic cells, on average: sensitive patient samples
# Experimental: as §1, §2, §3, §4, §5
# [3] = system: Bone marrow mononuclear cells (BMMCs) from high risk MDS patients; assay: MDS liquid culture, viable cell counting; conditions: 24 hours exposure, 37, 111, 333 and 1000 nM, dose dependent, maintained at least a week
# Experimental: (§6) Methods. The effect of Compound 1 on high risk MDS samples was measured in an in vitro liquid culture as well as by colony assays in order to better define its effect on stem/progenitor cells. Bone marrow mononuclear cells (BMMCs) from high risk MDS patients were cultured in vitro in CellGro medium (GellGenix) supplemented with hLDL (40 μg/mL), SCF (50 ng/mL), FLT3 […] (50 ng/mL), IL-3 (10 ng/mL), IL-6 (25 ng/mL) and TPO (100 ng/mL), all from Peprotech. During culture, cells were exposed to different concentrations of Compound 1 (37, 111, 333 and 1000 nM) or DMSO control. After 24 hours, cells were washed twice to remove compound and maintained in culture up to one week, performing viable cell counting on days 1, 3 and 7. Just after compound washout, […] per condition were collected for colony forming assays and another […] were stained for intracellular flow cytometry.
# [4] = system: Bone marrow mononuclear cells (BMMCs) from high risk MDS patients; assay: MDS intracellular flow cytometry, active Caspase 3; conditions: 24 hours exposure
# Experimental: as §6
# For intracellular flow cytometry measurement of apoptosis cells were fixed in 1.6% paraformaldehyde, permeabilized in ice cold methanol and stained using a FITC-conjugated anti-active Caspase 3 antibody (Becton Dickinson). A FACSCanto II flow cytometer (Becton Dickinson) was used for flow cytometry data acquisition. Flow cytometry standard (FCS) files were analyzed using Infinicyt software (Cytognos).
compound,measurement,setting,value
"O=C1CCC(N2Cc3cc(CNC(=O)C(F)(F)c4ccc(Cl)cc4)ccc3C2=O)C(=O)N1 (centres unmarked) [Compound 1, 2-(4-chlorophenyl)-N-((2-(2,6-dioxopiperidin-3-yl)-1-oxoisoindolin-5-yl)methyl)-2,2-difluoroacetamide]",Emax,"[1]; Homo sapiens, Lymphocyte, normal lymphocytes in patient samples where sufficient could be counted, from 24 to 96 hours, read-out: Emax, averaged",46 to 76%
same,Emax,"[1]; Lymphoid (LIVE) cells, 48 hours incubation, per AML donor sample, 100% minus YMin",69.4%
same,EC50,"[1]; Lymphoid (LIVE) cells, 48 hours incubation, per AML donor sample, unit inferred",43 nM
same,patient samples sensitive to Compound 1,[2]; 30 fresh AML bone marrow samples,26 out of 30
same,Emax,"[2]; Homo sapiens, 96 h, Leukemic (LIVE) cells, 96 hours incubation, per AML donor sample, read-out: Emax",98%
same,EC50,"[2]; Homo sapiens, 96 h, sensitive AML patient samples (26 out of 30), across all three time points (24, 48, 96 hours), read-out: EC50 (range)",2 to 160 nM
same,EC50,"[2]; Homo sapiens, 96 h, sensitive AML patient samples (26 out of 30), across all three time points (24, 48, 96 hours), read-out: mean EC50",21 nM
same,Emax,"[2]; Leukemic (LIVE) cells, 24 hours incubation, per AML donor sample",64.3% and 83.1%
same,EC50,"[2]; Leukemic (LIVE) cells, 24 hours incubation, per AML donor sample, unit not printed in table (2 to 160 nM), read-out: EC50",13 nM
same,Emax,"[2]; Leukemic (LIVE) cells, 48 hours incubation, per AML donor sample",99.8%
same,Emax,"[2]; Leukemic (LIVE) cells, 96 hours incubation, per AML donor sample",100.0% and 99.9% and 99.6%
same,EC50,"[2]; Leukemic (LIVE) cells, 96 hours incubation, per AML donor sample, unit not printed in table (2 to 160 nM), read-out: EC50",5 nM
same,depletion of leukemic blasts,"[2]; four patient samples categorized as insensitive, at 24 and 48 hours",≤ 68%
same,"depletion of leukemic cells, on average",[2]; by 48 hours,> 92%
same,"depletion of leukemic cells, on average",[2]; by 96 hours,> 98%
same,number of viable cells,[3],significantly reduced
same,caspase 3 activation,[4],induction of apoptosis
